Here are results for 26 molecules from ChEMBL document CHEMBL1201862, “PubChem BioAssay data set” (2004).

A short description of experiment [1]: inhibitors of firefly luciferase expression or activity, dose response, H4 neuroglioma cells, luminescence (AID 1990). The experiment is classed as functional, cell-based.
A short description of experiment [2]: inhibitors of SNCA 5'UTR-driven reporter translation, confirmation, H4 neuroglioma cells, luminescence (AID 1988). The class given is functional, cell-based.
The nature of experiment [3]: Luminescence Cell-Based Dose Response HTS to Identify Inhibitors of 5'UTR Stem-Loop Driven Prion Protein mRNA Translation in H4 Neuroglioblastoma Cells. [Related pubchem assays: 1827 (Project Summary), 1813 (Primary HTS)]. The class given is functional.
Experiment [4] is described as follows: HEp-2 cell cytotoxicity, dose response, cytotoxicity control for RSV inhibitor project, HTS (AID 2410). The class given is functional. To be noted: human respiratory syncytial virus.
The nature of experiment [5]: Luminescence Cell-Based Dose Retest to Confirm Inhibitors of Cancer Stem Cells. [Related pubchem assays (depositor defined):AID2717, AID2721]. The class given is functional. To be noted: Homo sapiens.
The nature of experiment [6]: cytotoxicity toward NIH3T3 fibroblasts, dose response, counter-screen, cell-based, ATP luminescence, mouse fibroblasts (AID 2010).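 Note: cells exposed to compound for about 90 hours before reading.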 The experiment is classed as functional. Background: The purpose of a counterscreen is to sort out artefacts and off-target activity.
Experiment [7] in a line: inhibitors of intracellular T. cruzi replication, confirmation, NIH3T3 host cells, beta-gal luminescence (AID 2044).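 Note: intracellular parasites grown in NIH/3T3 mouse fibroblasts as host cells; luminescent beta-galactosidase reporter signal from transgenic T. cruzi replicating inside host cells; inhibitors lower the luminescence signal.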 The experiment is classed as functional, cell-based.
For experiment [8], the target named is T1, Streptokinase A (Streptococcus pyogenes serotype M1, UniProt P10520).
T1 sequence (P10520 whole entry): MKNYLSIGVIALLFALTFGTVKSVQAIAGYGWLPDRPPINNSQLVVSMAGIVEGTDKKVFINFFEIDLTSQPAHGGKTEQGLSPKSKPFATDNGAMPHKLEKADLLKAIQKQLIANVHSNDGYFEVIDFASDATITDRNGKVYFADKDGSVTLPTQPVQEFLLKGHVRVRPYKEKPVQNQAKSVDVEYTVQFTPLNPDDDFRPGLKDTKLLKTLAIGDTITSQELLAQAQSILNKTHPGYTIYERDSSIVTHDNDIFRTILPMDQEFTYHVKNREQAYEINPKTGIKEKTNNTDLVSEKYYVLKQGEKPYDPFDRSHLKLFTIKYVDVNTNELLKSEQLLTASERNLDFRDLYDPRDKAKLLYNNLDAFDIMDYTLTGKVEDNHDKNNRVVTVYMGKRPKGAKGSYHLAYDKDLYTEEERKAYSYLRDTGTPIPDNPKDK
Description: S. pyogenes streptokinase expression inhibitors, potency, dose response, plasminogen activation absorbance, OD405 (AID 1914).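 Note: secreted streptokinase activity via plasminogen activation per viability signal from cell pellet.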 The class given is functional, Streptococcus pyogenes M1 GAS.

Experiment [9] deals with Streptococcus. Briefly: Group A Streptococcus viability loss, dose response, counter-screen for streptokinase expression inhibitor project, luminescence, BacTiterGlo (AID 1915).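 Note: potency for reduction of bacterial viability or growth.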 The experiment is classed as functional, organism-based.
Experiment [10] concerns Streptococcus sp. 'group A'. Description: growth inhibition of control SK(-) GAS strain, dose response, counter-screen for streptokinase expression inhibitor project, luminescence, kanamycin, BacTiterGlo, confirmation (AID 1900). The class given is functional, organism-based.
Experiment [11] can be described thus: cells. The class given is functional, cell-based.
Experiment [12] is described as follows: cells. The experiment is classed as functional, cell-based. The source holds these as a separate data set.
For experiment [13], the target named is Cytochrome P450 2C9 (Homo sapiens, UniProt P11712).
For experiment [14], the target named is Cytochrome P450 2C19 (Homo sapiens, UniProt P33261). Description: Cytochrome panel assay with activity outcomes. Panel member name: p450-cyp2c19 Compounds with AC50 equal or less than 10 uM are considered active. The class given is functional. The conditions noted are these: read-out: AC50.
Experiment [15] concerns the target Cytochrome P450 2D6 (Homo sapiens, UniProt P10635).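 Note: CYP2D6 member of a cytochrome P450 panel assay.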
The target of experiment [16] is Luciferin 4-monooxygenase (Photinus pyralis, UniProt P08659). Briefly: firefly luciferase enzyme inhibitors, dose response, biochemical, luminescence (AID 1891).
Experiment [17] is described as follows: Luminescence Cell-Based Dose Confirmation HTS to Identify Inhibitors of Platelet Dense Granule Release. [Related pubchem assays: 1663 (Primary HTS), 1678 (Summary of Project)]. The experiment is classed as functional.
Experiment [18] addresses T2, Protein RecA (Mycobacterium tuberculosis, UniProt P9WHJ3).
T2 sequence (P9WHJ3 whole entry): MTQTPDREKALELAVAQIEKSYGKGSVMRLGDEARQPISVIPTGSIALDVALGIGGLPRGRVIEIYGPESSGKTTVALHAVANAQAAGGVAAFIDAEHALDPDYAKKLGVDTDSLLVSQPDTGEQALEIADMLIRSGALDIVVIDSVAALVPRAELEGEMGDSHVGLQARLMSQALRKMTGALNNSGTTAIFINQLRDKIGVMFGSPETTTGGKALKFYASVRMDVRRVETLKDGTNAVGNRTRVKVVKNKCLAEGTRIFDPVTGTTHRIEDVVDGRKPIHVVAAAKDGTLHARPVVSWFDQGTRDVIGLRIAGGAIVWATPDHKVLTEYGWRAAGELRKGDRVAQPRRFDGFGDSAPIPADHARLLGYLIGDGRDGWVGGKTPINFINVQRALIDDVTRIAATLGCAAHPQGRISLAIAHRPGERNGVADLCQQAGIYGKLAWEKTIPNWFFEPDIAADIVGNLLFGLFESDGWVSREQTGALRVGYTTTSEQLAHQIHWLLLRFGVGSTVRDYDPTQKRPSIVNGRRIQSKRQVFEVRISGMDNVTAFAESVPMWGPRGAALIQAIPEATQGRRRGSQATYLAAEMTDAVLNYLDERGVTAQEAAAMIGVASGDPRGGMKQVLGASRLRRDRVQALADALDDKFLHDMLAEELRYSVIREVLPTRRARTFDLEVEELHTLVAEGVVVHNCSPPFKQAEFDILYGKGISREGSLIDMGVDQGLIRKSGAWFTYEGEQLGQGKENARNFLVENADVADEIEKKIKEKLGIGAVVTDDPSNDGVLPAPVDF
Briefly: Fluorescence Cell-Free Homogeneous Dose Retest to Identify Inhibitors of RecA-Intein Splicing Activity. [Related pubchem assays (depositor defined):AID2097, AID2223, AID489010, AID492950]. The class given is functional.

Experiment [19] deals with T3, Replicative DNA helicase DnaB (Mycobacterium tuberculosis, UniProt P9WMR3).
T3 sequence (P9WMR3 whole entry): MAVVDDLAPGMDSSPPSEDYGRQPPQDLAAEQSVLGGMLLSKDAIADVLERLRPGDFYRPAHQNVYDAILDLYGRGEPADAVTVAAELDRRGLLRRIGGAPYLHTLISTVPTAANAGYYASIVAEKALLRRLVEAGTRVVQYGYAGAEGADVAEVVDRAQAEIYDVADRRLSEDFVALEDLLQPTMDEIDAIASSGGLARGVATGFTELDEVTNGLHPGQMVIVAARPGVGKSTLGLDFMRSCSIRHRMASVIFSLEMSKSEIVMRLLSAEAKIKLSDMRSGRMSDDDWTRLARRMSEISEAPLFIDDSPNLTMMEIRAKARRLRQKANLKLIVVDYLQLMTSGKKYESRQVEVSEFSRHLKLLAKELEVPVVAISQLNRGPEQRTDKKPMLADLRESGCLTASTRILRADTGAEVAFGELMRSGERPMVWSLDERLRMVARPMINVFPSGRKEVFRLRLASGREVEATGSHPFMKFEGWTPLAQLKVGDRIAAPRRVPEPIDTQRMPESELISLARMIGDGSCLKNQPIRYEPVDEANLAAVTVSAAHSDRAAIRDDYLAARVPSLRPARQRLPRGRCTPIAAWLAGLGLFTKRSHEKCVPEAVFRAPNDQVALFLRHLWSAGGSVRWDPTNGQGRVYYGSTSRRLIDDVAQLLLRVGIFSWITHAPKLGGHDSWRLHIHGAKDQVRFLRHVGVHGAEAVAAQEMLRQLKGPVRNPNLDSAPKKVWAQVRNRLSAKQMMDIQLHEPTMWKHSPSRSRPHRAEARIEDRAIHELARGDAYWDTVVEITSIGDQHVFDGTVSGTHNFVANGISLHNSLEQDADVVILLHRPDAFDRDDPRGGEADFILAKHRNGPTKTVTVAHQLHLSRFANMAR
Briefly: DnaB intein splicing inhibitors, dose response, biochemical, cell-free fluorescence (AID 449749). The experiment is classed as functional.

Molecules are shown by their SMILES. Activity calls are given as the source filed them.

Chain of Luciferin 4-monooxygenase (P08659 whole entry): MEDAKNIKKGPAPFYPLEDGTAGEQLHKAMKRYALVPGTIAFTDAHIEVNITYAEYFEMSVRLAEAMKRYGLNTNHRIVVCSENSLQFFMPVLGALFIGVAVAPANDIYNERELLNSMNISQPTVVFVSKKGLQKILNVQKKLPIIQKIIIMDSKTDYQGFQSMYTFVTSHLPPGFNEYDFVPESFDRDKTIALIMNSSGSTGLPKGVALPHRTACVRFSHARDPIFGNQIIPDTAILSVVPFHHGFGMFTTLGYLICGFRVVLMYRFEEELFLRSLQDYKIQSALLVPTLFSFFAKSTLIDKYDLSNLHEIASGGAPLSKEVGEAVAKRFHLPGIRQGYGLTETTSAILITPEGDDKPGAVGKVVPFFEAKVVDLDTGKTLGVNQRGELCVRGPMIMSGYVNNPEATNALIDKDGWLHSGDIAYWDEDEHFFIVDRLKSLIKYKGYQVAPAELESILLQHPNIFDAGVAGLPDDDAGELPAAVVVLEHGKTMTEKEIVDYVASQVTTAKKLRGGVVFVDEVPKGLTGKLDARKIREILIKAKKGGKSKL
Chain of Cytochrome P450 2D6 (P10635 whole entry): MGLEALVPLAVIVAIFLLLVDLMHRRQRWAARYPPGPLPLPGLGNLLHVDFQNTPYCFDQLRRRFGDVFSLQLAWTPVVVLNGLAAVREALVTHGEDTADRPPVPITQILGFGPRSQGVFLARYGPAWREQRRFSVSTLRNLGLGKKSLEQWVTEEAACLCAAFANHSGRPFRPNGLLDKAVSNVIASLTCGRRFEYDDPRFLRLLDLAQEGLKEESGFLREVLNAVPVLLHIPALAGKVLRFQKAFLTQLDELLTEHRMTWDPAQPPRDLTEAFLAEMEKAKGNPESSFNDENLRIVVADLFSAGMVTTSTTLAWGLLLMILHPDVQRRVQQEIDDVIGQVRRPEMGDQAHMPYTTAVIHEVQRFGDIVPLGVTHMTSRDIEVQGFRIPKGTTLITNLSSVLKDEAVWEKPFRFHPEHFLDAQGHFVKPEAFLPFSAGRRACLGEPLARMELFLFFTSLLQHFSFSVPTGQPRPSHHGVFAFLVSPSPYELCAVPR
Chain of Cytochrome P450 2C9 (P11712 whole entry): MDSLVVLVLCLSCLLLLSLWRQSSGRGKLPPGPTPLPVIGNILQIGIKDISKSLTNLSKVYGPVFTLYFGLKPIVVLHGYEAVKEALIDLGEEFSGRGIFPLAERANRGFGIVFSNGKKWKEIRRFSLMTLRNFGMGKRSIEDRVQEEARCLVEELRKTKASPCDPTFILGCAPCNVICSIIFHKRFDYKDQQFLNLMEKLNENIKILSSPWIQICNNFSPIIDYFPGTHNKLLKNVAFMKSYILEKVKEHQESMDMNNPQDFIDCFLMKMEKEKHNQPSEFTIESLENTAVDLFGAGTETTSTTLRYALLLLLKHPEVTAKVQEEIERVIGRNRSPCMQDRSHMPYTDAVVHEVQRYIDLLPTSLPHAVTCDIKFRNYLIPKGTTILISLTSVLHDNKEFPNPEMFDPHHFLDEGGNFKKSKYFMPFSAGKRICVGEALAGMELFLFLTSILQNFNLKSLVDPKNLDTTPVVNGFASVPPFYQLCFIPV
Chain of Cytochrome P450 2C19 (P33261 whole entry): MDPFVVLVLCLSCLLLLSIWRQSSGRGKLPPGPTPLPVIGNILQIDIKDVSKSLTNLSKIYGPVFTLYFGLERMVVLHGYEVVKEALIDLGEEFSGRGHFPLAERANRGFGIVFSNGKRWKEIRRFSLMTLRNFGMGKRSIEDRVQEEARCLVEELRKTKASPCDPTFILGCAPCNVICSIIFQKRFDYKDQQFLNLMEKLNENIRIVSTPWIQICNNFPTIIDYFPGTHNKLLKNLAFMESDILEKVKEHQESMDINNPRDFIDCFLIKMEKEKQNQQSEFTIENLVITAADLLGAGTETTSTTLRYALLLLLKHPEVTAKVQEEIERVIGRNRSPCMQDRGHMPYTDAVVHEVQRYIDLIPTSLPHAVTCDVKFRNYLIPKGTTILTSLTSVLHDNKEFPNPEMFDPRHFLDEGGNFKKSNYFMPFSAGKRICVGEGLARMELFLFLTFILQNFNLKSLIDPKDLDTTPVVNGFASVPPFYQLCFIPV

Regarding `CCOC(=O)C1=C(CN2CCN(C(=O)c3ccco3)CC2)NC(=O)NC1c1ccccc1` (stereo not given), the EC50 (as a rule, the midpoint of the concentration-response curve) is 42.2 µM (active) in experiment [1], > 120 µM (not active) in [2] and > 120 µM (not active) in experiment [3].

Regarding `C=CCOc1cccc(/C=C2\C(=O)N(Cc3ccc(C)cc3)C(C)=C2C(=O)OC)c1`, the CC50 – broadly, the concentration that lowers cell viability or growth by half – in [4] was 29.7 µM (active). Besides, the AC50 (commonly the concentration giving half of the maximal activity seen) in experiment [5] was 5.38 µM (active).

In the case of `Cc1ccc(C#CC[N+](C)(C)CC#Cc2ccccc2)cc1`, the EC50 was > 60 µM (not active) in [6]; > 120 µM (not active) in experiment [1]; > 120 µM (not active) in [2]; 1.92 µM (active) in [7]; > 120 µM (not active) in experiment [3].

With `O=C(c1cccs1)N1N=C(c2ccccc2)CC1c1ccccc1` (stereo not given), the EC50 was > 150 µM (not active) in [8], 16.2 µM (active) in experiment [9] and 6.85 µM (active) in experiment [10].

For `CC(C)CC(=O)Nc1cccc(-c2csc(-c3ccccc3)n2)c1`, in [4], the half-maximal cytotoxic concentration (CC50) is 17.9 µM (active).

As for `Cc1ccc2c(CSc3nc4ccccc4c(=O)n3CCCO)cc(=O)oc2c1C`, the CC50 in experiment [4] is 30.5 µM (active).

For `CCCCOC(=O)c1ccc(NC(=S)N2CCN(c3ncc4c(=O)c(C(=O)O)cn(CC)c4n3)CC2)cc1`, the EC50 in experiment [8] was > 150 µM (not active); in experiment [9], 2.62 µM (active); in experiment [10], 0.801 µM (active).

Turning to `Cc1c(N=C2N=C(NC(=O)c3cccs3)c3ccccc32)c(=O)n(-c2ccccc2)n1C`, the CC50 in experiment [4] was 18.7 µM (active).

Consider `O=C1CSCN1c1ccc(Cl)cc1`, for which the EC50 in experiment [11] and in experiment [12] was > 350 µM (not active) in each case.

Turning to `CCOC(=O)CNC(=O)CSc1nnc(Cn2cnc3ccccc32)n1C`, the EC50 in experiment [11] and in experiment [12] was > 350 µM (not active) throughout.

For the molecule `COc1ccc2c(c1)CCc1cnc(N)nc1-2`, in experiment [4], the CC50 is 24.4 µM (active).

Consider `C1CCC2(CC1)C1=C(CCCC1)Nc1nnnn12`, for which the EC50 in experiment [11] and in experiment [12] was > 350 µM (not active) throughout.

Take `COCCNC(=O)Nc1ccc2nc(-c3cccs3)c(-c3cccs3)nc2c1`: the CC50 in experiment [4] was 33.1 µM (active).

On to `Cn1c(SCC(=O)NC2(C#N)CCCCC2)nnc1-c1cccnc1`, for which the EC50 in [8], in experiment [9] and in [10] was > 150 µM (not active) in each case.

For `Cc1cc(C)n(-c2nc3ccccc3c(=O)n2OCC(=O)OCc2ccccc2)n1`, the EC50 in experiment [1] is 19.3 µM (active); in experiment [2], > 120 µM (not active); in experiment [3], 17.6 µM (active).

As to `Cc1ccc(/C=C/C(=O)c2nc3ccccc3[nH]2)cc1`, the concentration at half-maximal activity (AC50) in experiment [13] was 7.94 µM (inconclusive); in experiment [14] it was 15.8 nM (inconclusive); in experiment [15], 28.2 µM (inconclusive). Besides, in [4], the CC50 is 46.1 µM (active).

Turning to `N=C(NOC(=O)c1ccc(Cl)cc1)c1ccccn1`, the values for the half-maximal effective concentration (EC50) in experiment [16] and in [17] were 1.53 µM (active) and 7.38 µM (active), respectively. Besides, the CC50 in experiment [4] is 16.4 µM (active).

Take `Cc1ccc(CN=C(N)Nc2nc(C)cc(C)n2)cc1`: the figures for the EC50 in [1], in [2] and in experiment [3] were > 120 µM (not active), 7.78 µM (active) and 9.36 µM (active), respectively.

For `Cc1ccc(CNC(=O)C2CCN(S(=O)(=O)c3ccc4c(c3)CC(C)N4C(=O)C3CCC3)CC2)o1` (stereo not given), the figures for the EC50 in [1], in [2] and in [3] were 13 µM (active), 12.3 µM (active) and > 120 µM (not active), respectively.

Regarding `CC(=O)c1ccc(NC2CC(O)C(O)CO2)cc1` (stereo not given), the EC50 in experiment [1] was > 120 µM (not active); in [2], 16.1 µM (active); in experiment [3] it was > 120 µM (not active).

Turning to `CCn1c(=O)c(C(=O)NNC(=O)Cc2ccccc2)c(O)c2ccccc21`, the results for the EC50 in experiment [8], in experiment [9] and in experiment [10] were > 150 µM (not active), > 150 µM (not active) and 9.03 µM (active), respectively.

With `CC(C)c1ccc(NC(=O)C2CCCN(S(=O)(=O)c3ccc4c(c3)C(C)(C)C(=O)N4C)C2)cc1` (stereo not given), in experiment [4], the half-maximal cytotoxic concentration (CC50) was 17.6 µM (active).

On to `Cc1cc(C)c2nc(SCCc3ccccc3)nc(C)c2c1`, for which the EC50 is 12.5 µM (active) in [8], > 150 µM (not active) in experiment [9] and 33.4 µM (active) in experiment [10].

In the case of `Cc1ccc2c(c1)-c1c(ssc1=S)C(C)(C)N2C(=O)CSc1nncn1C`, the half-maximal effective concentration (EC50) in [18] is 9.47 µM (active); in [1], 46.1 µM (active); in experiment [2], > 120 µM (not active); in [3], > 120 µM (not active). For the same molecule, the AC50 in experiment [19] is 6.63 µM (active).

In the case of `CCOC(=O)N1CCC(/N=c2/c(-c3ccccc3)c(O)c2=O)CC1`, the EC50 in experiment [11] and in experiment [12] was > 350 µM (not active) each time.

For the molecule `O=C(N/N=C/c1ccccn1)c1ccc(Br)cc1`, the figures for the EC50 in [11] and in experiment [12] were 15.2 µM (active) and > 350 µM (not active), respectively.
